Assay results: PubChem BioAssay (NCI)
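Values below derive from 48-hour exposures of cells grown in 96-well plates, with endpoints linearly interpolated between the two concentrations bracketing the appropriate inhibition level. GI50 marks 50% less growth. TGI is the concentration that stops growth completely.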

Legend:
Assay in all cases: NCI anticancer screen, dose series, 48 h
OVCAR-3 ovarian = tested on: OVCAR-3 ovarian
SNB-19 CNS = tested on: SNB-19 CNS
SK-MEL-5 melanoma = tested on: SK-MEL-5 melanoma
786-0 renal = tested on: 786-0 renal
HOP-62 NSCLC = tested on: HOP-62 NSCLC
RPMI-8226 leukemia = tested on: RPMI-8226 leukemia
A549 NSCLC = tested on: A549 NSCLC
OVCAR-5 ovarian = tested on: OVCAR-5 ovarian
HS 578T breast = tested on: HS 578T breast
IGROV1 ovarian = tested on: IGROV1 ovarian
MDA-MB-435 = tested on: MDA-MB-435
SK-MEL-2 melanoma = tested on: SK-MEL-2 melanoma
KM12 colon = tested on: KM12 colon
OVCAR-8 ovarian = tested on: OVCAR-8 ovarian
SR leukemia = tested on: SR leukemia
A498 renal = tested on: A498 renal
HCC-2998 colon = tested on: HCC-2998 colon
NCI/ADR-RES ovarian = tested on: NCI/ADR-RES ovarian
OVCAR-4 ovarian = tested on: OVCAR-4 ovarian
DU-145 prostate = tested on: DU-145 prostate
UACC-257 melanoma = tested on: UACC-257 melanoma
SF-268 CNS = tested on: SF-268 CNS
TK-10 renal = tested on: TK-10 renal
T-47D breast = tested on: T-47D breast
LOX IMVI melanoma = tested on: LOX IMVI melanoma
SK-MEL-28 melanoma = tested on: SK-MEL-28 melanoma
U251 CNS = tested on: U251 CNS
SF-539 CNS = tested on: SF-539 CNS
CCRF-CEM leukemia = tested on: CCRF-CEM leukemia
MALME-3M melanoma = tested on: MALME-3M melanoma
M14 melanoma = tested on: M14 melanoma
NCI-H23 lung = tested on: NCI-H23 lung
MCF7 breast = tested on: MCF7 breast
ACHN renal = tested on: ACHN renal
MDA-MB-231 breast = tested on: MDA-MB-231 breast
UO-31 renal = tested on: UO-31 renal
BT-549 breast = tested on: BT-549 breast
SK-OV-3 ovarian = tested on: SK-OV-3 ovarian
COLO 205 colon = tested on: COLO 205 colon
SNB-75 CNS = tested on: SNB-75 CNS
HCT-116 colon = tested on: HCT-116 colon
HCT-15 colon = tested on: HCT-15 colon
CAKI-1 renal = tested on: CAKI-1 renal
SW-620 colon = tested on: SW-620 colon
HOP-92 NSCLC = tested on: HOP-92 NSCLC
HT29 colon = tested on: HT29 colon
SN12C renal = tested on: SN12C renal
HL-60(TB) leukemia = tested on: HL-60(TB) leukemia
UACC-62 melanoma = tested on: UACC-62 melanoma
NCI-H226 lung = tested on: NCI-H226 lung
NCI-H460 lung = tested on: NCI-H460 lung
NCI-H522 lung = tested on: NCI-H522 lung
K-562 leukemia = tested on: K-562 leukemia
PC-3 prostate = tested on: PC-3 prostate
SF-295 CNS = tested on: SF-295 CNS
MOLT-4 leukemia = tested on: MOLT-4 leukemia
RXF 393 renal = tested on: RXF 393 renal

Compound: O=C(Nc1ccc(-c2nc3ccc(NC(=O)c4ccc(Cl)cc4)cc3[nH]2)cc1)c1ccc(Cl)cc1
- GI50 (OVCAR-3 ovarian): 3.31 µM
- TGI (OVCAR-3 ovarian): 11.4 µM
- GI50 (SNB-19 CNS): 13.8 µM
- TGI (SNB-19 CNS): 28.4 µM
- GI50 (SK-MEL-5 melanoma): 3.53 µM
- TGI (SK-MEL-5 melanoma): 14.4 µM
- GI50 (786-0 renal): 0.308 µM
- TGI (786-0 renal): 2.26 µM
- GI50 (HOP-62 NSCLC): 2.59 µM
- TGI (HOP-62 NSCLC): 9.07 µM
- GI50 (RPMI-8226 leukemia): 5.77 µM
- TGI (RPMI-8226 leukemia): 23 µM
- GI50 (A549 NSCLC): 2.05 µM
- TGI (A549 NSCLC): 5.08 µM
- GI50 (OVCAR-5 ovarian): 5.45 µM
- TGI (OVCAR-5 ovarian): 19.2 µM
- GI50 (HS 578T breast): 0.0559 µM
- TGI (HS 578T breast): 7.9 µM
- GI50 (IGROV1 ovarian): 6.73 µM
- TGI (IGROV1 ovarian): 19.6 µM
- GI50 (MDA-MB-435): 2.36 µM
- TGI (MDA-MB-435): 7.14 µM
- GI50 (SK-MEL-2 melanoma): 12.6 µM
- TGI (SK-MEL-2 melanoma): 25.2 µM
- GI50 (KM12 colon): 2.16 µM
- TGI (KM12 colon): 5.38 µM
- GI50 (OVCAR-8 ovarian): 1.73 µM
- TGI (OVCAR-8 ovarian): 6.93 µM
- GI50 (SR leukemia): 0.769 µM
- TGI (SR leukemia): 4.34 µM
- GI50 (A498 renal): 3.56 µM
- TGI (A498 renal): 16.8 µM
- GI50 (HCC-2998 colon): 7.47 µM
- TGI (HCC-2998 colon): 21.4 µM
- GI50 (NCI/ADR-RES ovarian): 17 µM
- TGI (NCI/ADR-RES ovarian): 64.4 µM
- GI50 (OVCAR-4 ovarian): 1.76 µM
- TGI (OVCAR-4 ovarian): 3.47 µM
- GI50 (DU-145 prostate): 2.43 µM
- TGI (DU-145 prostate): 7.16 µM
- GI50 (UACC-257 melanoma): 11.5 µM
- TGI (UACC-257 melanoma): 24.1 µM
- GI50 (SF-268 CNS): 5.78 µM
- TGI (SF-268 CNS): 18.5 µM
- GI50 (TK-10 renal): 2.39 µM
- TGI (TK-10 renal): 5.8 µM
- GI50 (T-47D breast): 2.13 µM
- TGI (T-47D breast): 5.01 µM
- GI50 (LOX IMVI melanoma): 1.94 µM
- TGI (LOX IMVI melanoma): 11.4 µM
- GI50 (SK-MEL-28 melanoma): 2.78 µM
- TGI (SK-MEL-28 melanoma): 14.9 µM
- GI50 (U251 CNS): 0.412 µM
- TGI (U251 CNS): 3.21 µM
- GI50 (SF-539 CNS): 0.0709 µM
- TGI (SF-539 CNS): 6.22 µM
- GI50 (CCRF-CEM leukemia): 0.433 µM
- TGI (CCRF-CEM leukemia): 4.41 µM
- GI50 (MALME-3M melanoma): 3.79 µM
- TGI (MALME-3M melanoma): 11.4 µM
- GI50 (M14 melanoma): 5.28 µM
- TGI (M14 melanoma): 18 µM
- GI50 (NCI-H23 lung): 4.63 µM
- TGI (NCI-H23 lung): 16.4 µM
- GI50 (MCF7 breast): 1.23 µM
- TGI (MCF7 breast): 4.91 µM
- GI50 (ACHN renal): 8.65 µM
- TGI (ACHN renal): 21.1 µM
- GI50 (MDA-MB-231 breast): 3.68 µM
- TGI (MDA-MB-231 breast): 15.4 µM
- GI50 (UO-31 renal): 8.19 µM
- TGI (UO-31 renal): 20 µM
- GI50 (BT-549 breast): 6.56 µM
- TGI (BT-549 breast): 20.7 µM
- GI50 (SK-OV-3 ovarian): 11.8 µM
- TGI (SK-OV-3 ovarian): 24.2 µM
- GI50 (COLO 205 colon): 2.47 µM
- TGI (COLO 205 colon): 6.54 µM
- GI50 (SNB-75 CNS): 1.52 µM
- TGI (SNB-75 CNS): 7.93 µM
- GI50 (HCT-116 colon): 2.71 µM
- TGI (HCT-116 colon): 10.8 µM
- GI50 (HCT-15 colon): 10.6 µM
- TGI (HCT-15 colon): 27.4 µM
- GI50 (CAKI-1 renal): 7.12 µM
- TGI (CAKI-1 renal): 23.7 µM
- GI50 (SW-620 colon): 2.35 µM
- TGI (SW-620 colon): 8.46 µM
- GI50 (HOP-92 NSCLC): 2.68 µM
- TGI (HOP-92 NSCLC): 11 µM
- GI50 (HT29 colon): 2.11 µM
- TGI (HT29 colon): 6.89 µM
- GI50 (SN12C renal): 12 µM
- TGI (SN12C renal): 24.3 µM
- GI50 (HL-60(TB) leukemia): 4.12 µM
- TGI (HL-60(TB) leukemia): 16.2 µM
- GI50 (UACC-62 melanoma): 4.21 µM
- TGI (UACC-62 melanoma): 16.4 µM
- GI50 (NCI-H226 lung): 15.1 µM
- TGI (NCI-H226 lung): 31.8 µM
- GI50 (NCI-H460 lung): 1.79 µM
- TGI (NCI-H460 lung): 4.03 µM
- GI50 (NCI-H522 lung): 2.95 µM
- TGI (NCI-H522 lung): 9.36 µM
- GI50 (K-562 leukemia): 0.487 µM
- TGI (K-562 leukemia): 4.57 µM
- GI50 (PC-3 prostate): 2.11 µM
- TGI (PC-3 prostate): 5.93 µM
- GI50 (SF-295 CNS): 0.23 µM
- TGI (SF-295 CNS): 8.77 µM
- GI50 (MOLT-4 leukemia): 0.901 µM
- TGI (MOLT-4 leukemia): 8.31 µM
- GI50 (RXF 393 renal): 0.0186 µM
- TGI (RXF 393 renal): 1.93 µM
